Test results published in the supplement of paper PMC10307832.

Columns and labels:
Experiment in all cases: relative viability (nuclei count vs DMSO), 5 days (fraction); higher = more cells survive
COR-L 105 = test system: COR-L 105
Outline: (§1)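 After 5 days of treatment, lung cancer cells in 1536-well plates were fixed and stained in a single step (final 0.05% Triton X-100, 1% formaldehyde, 1 ug/ml Hoechst) and their nuclei counted on 4× images. Treatment had been applied by pin tool the day after seeding as one drug alone or as a fixed anchor-drug dose with five library-drug doses (not always all listed) in √10 steps. Relative viability is the nuclei count of treated wells divided by that of vehicle wells, and values are medians of duplicate plates.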

COR-L23 = test system: COR-L23
Outline: as §1

HARA = test system: HARA
Outline: as §1

HCC-15 = test system: HCC-15
Outline: as §1

HOP-62 = test system: HOP-62
Outline: as §1

NCI-H1355 = test system: NCI-H1355
Outline: as §1

NCI-H1395 = test system: NCI-H1395
Outline: as §1

NCI-H1734 = test system: NCI-H1734
Outline: as §1

NCI-H1755 = test system: NCI-H1755
Outline: as §1

NCI-H1792 = test system: NCI-H1792
Outline: as §1

NCI-H1793 = test system: NCI-H1793
Outline: as §1

NCI-H1993 = test system: NCI-H1993
Outline: as §1

NCI-H2009 = test system: NCI-H2009
Outline: as §1

NCI-H2170 = test system: NCI-H2170
Outline: as §1

NCI-H2228 = test system: NCI-H2228
Outline: as §1

NCI-H2347 = test system: NCI-H2347
Outline: as §1

NCI-H358 = test system: NCI-H358
Outline: as §1

NCI-H522 = test system: NCI-H522
Outline: as §1

NCI-H647 = test system: NCI-H647
Outline: as §1

NCI-H838 = test system: NCI-H838
Outline: as §1

SK-MES-1 = test system: SK-MES-1
Outline: as §1

UMC-11 = test system: UMC-11
Outline: as §1

SMILES: Cc1sc2c(c1C)C(c1ccc(Cl)cc1)=N[C@@H](CC(=O)OC(C)(C)C)c1nnc(C)n1-2 [JQ1] + CC(=O)Nc1cccc(-n2c(=O)n(C3CC3)c(=O)c3c(Nc4ccc(I)cc4F)n(C)c(=O)c(C)c32)c1 [Trametinib] (partner 0.02 µM)
- relative viability (COR-L 105; first compound 0.04 µM): 0.46
- relative viability (COR-L 105; first compound 0.1265 µM): 0.362
- relative viability (COR-L 105; first compound 0.4 µM): 0.377
- relative viability (COR-L 105; first compound 1.265 µM): 0.355
- relative viability (COR-L 105; first compound 4 µM): 0.357
- relative viability (COR-L23; first compound 0.04 µM): 0.562
- relative viability (COR-L23; first compound 0.1265 µM): 0.497
- relative viability (COR-L23; first compound 0.4 µM): 0.55
- relative viability (COR-L23; first compound 1.265 µM): 0.342
- relative viability (COR-L23; first compound 4 µM): 0.29
- relative viability (HARA; first compound 0.04 µM): 0.72
- relative viability (HARA; first compound 0.1265 µM): 0.411
- relative viability (HARA; first compound 0.4 µM): 0.174
- relative viability (HARA; first compound 1.265 µM): 0.184
- relative viability (HARA; first compound 4 µM): 0.304
- relative viability (HCC-15; first compound 0.04 µM): 0.376
- relative viability (HCC-15; first compound 0.4 µM): 0.338
- relative viability (HCC-15; first compound 1.265 µM): 0.31
- relative viability (HCC-15; first compound 4 µM): 0.28
- relative viability (HOP-62; first compound 0.04 µM): 0.307
- relative viability (HOP-62; first compound 0.1265 µM): 0.262
- relative viability (HOP-62; first compound 0.4 µM): 0.156
- relative viability (HOP-62; first compound 1.265 µM): 0.119
- relative viability (HOP-62; first compound 4 µM): 0.106
- relative viability (NCI-H1355; first compound 0.04 µM): 0.432
- relative viability (NCI-H1355; first compound 0.1265 µM): 0.429
- relative viability (NCI-H1355; first compound 0.4 µM): 0.34
- relative viability (NCI-H1355; first compound 1.265 µM): 0.277
- relative viability (NCI-H1355; first compound 4 µM): 0.255
- relative viability (NCI-H1395; first compound 0.04 µM): 1.03
- relative viability (NCI-H1395; first compound 0.1265 µM): 0.991
- relative viability (NCI-H1395; first compound 0.4 µM): 0.912
- relative viability (NCI-H1395; first compound 1.265 µM): 0.628
- relative viability (NCI-H1395; first compound 4 µM): 0.578
- relative viability (NCI-H1734; first compound 0.04 µM): 0.685
- relative viability (NCI-H1734; first compound 0.1265 µM): 0.688
- relative viability (NCI-H1734; first compound 0.4 µM): 0.644
- relative viability (NCI-H1734; first compound 1.265 µM): 0.462
- relative viability (NCI-H1734; first compound 4 µM): 0.491
- relative viability (NCI-H1755; first compound 0.04 µM): 0.796
- relative viability (NCI-H1755; first compound 0.1265 µM): 0.809
- relative viability (NCI-H1755; first compound 0.4 µM): 0.8
- relative viability (NCI-H1755; first compound 1.265 µM): 0.674
- relative viability (NCI-H1755; first compound 4 µM): 0.65
- relative viability (NCI-H1792; first compound 0.04 µM): 0.345
- relative viability (NCI-H1792; first compound 0.1265 µM): 0.421
- relative viability (NCI-H1792; first compound 0.4 µM): 0.286
- relative viability (NCI-H1792; first compound 1.265 µM): 0.191
- relative viability (NCI-H1792; first compound 4 µM): 0.186
- relative viability (NCI-H1793; first compound 0.04 µM): 0.483
- relative viability (NCI-H1793; first compound 0.1265 µM): 0.429
- relative viability (NCI-H1793; first compound 0.4 µM): 0.595
- relative viability (NCI-H1793; first compound 1.265 µM): 0.481
- relative viability (NCI-H1793; first compound 4 µM): 0.5
- relative viability (NCI-H1993; first compound 0.04 µM): 0.465
- relative viability (NCI-H1993; first compound 0.1265 µM): 0.461
- relative viability (NCI-H1993; first compound 0.4 µM): 0.541
- relative viability (NCI-H1993; first compound 1.265 µM): 0.542
- relative viability (NCI-H1993; first compound 4 µM): 0.57
- relative viability (NCI-H2009; first compound 0.04 µM): 0.234
- relative viability (NCI-H2009; first compound 0.1265 µM): 0.197
- relative viability (NCI-H2009; first compound 0.4 µM): 0.173
- relative viability (NCI-H2009; first compound 1.265 µM): 0.15
- relative viability (NCI-H2009; first compound 4 µM): 0.135
- relative viability (NCI-H2170; first compound 0.04 µM): 0.861
- relative viability (NCI-H2170; first compound 0.1265 µM): 0.843
- relative viability (NCI-H2170; first compound 0.4 µM): 0.637
- relative viability (NCI-H2170; first compound 1.265 µM): 0.585
- relative viability (NCI-H2170; first compound 4 µM): 0.519
- relative viability (NCI-H2228; first compound 0.04 µM): 0.483
- relative viability (NCI-H2228; first compound 0.1265 µM): 0.396
- relative viability (NCI-H2228; first compound 0.4 µM): 0.424
- relative viability (NCI-H2228; first compound 1.265 µM): 0.276
- relative viability (NCI-H2228; first compound 4 µM): 0.181
- relative viability (NCI-H2347; first compound 0.04 µM): 0.275
- relative viability (NCI-H2347; first compound 0.1265 µM): 0.294
- relative viability (NCI-H2347; first compound 0.4 µM): 0.276
- relative viability (NCI-H2347; first compound 1.265 µM): 0.24
- relative viability (NCI-H2347; first compound 4 µM): 0.258
- relative viability (NCI-H358; first compound 0.04 µM): 0.148
- relative viability (NCI-H358; first compound 0.1265 µM): 0.143
- relative viability (NCI-H358; first compound 0.4 µM): 0.122
- relative viability (NCI-H358; first compound 1.265 µM): 0.133
- relative viability (NCI-H358; first compound 4 µM): 0.127
- relative viability (NCI-H522; first compound 0.04 µM): 0.767
- relative viability (NCI-H522; first compound 0.1265 µM): 0.631
- relative viability (NCI-H522; first compound 0.4 µM): 0.485
- relative viability (NCI-H522; first compound 1.265 µM): 0.482
- relative viability (NCI-H522; first compound 4 µM): 0.447
- relative viability (NCI-H647; first compound 0.04 µM): 0.403
- relative viability (NCI-H647; first compound 0.1265 µM): 0.326
- relative viability (NCI-H647; first compound 0.4 µM): 0.214
- relative viability (NCI-H647; first compound 1.265 µM): 0.126
- relative viability (NCI-H647; first compound 4 µM): 0.0652
- relative viability (NCI-H838; first compound 0.04 µM): 0.521
- relative viability (NCI-H838; first compound 0.1265 µM): 0.267
- relative viability (NCI-H838; first compound 0.4 µM): 0.375
- relative viability (NCI-H838; first compound 1.265 µM): 0.293
- relative viability (NCI-H838; first compound 4 µM): 0.202
- relative viability (SK-MES-1; first compound 0.04 µM): 0.446
- relative viability (SK-MES-1; first compound 0.1265 µM): 0.309
- relative viability (SK-MES-1; first compound 0.4 µM): 0.32
- relative viability (SK-MES-1; first compound 1.265 µM): 0.24
- relative viability (SK-MES-1; first compound 4 µM): 0.259
- relative viability (UMC-11; first compound 0.04 µM): 0.588
- relative viability (UMC-11; first compound 0.1265 µM): 0.543
- relative viability (UMC-11; first compound 0.4 µM): 0.377
- relative viability (UMC-11; first compound 1.265 µM): 0.204
- relative viability (UMC-11; first compound 4 µM): 0.194
